Measurements published in ChEMBL document CHEMBL5335839, “Synthesis and structure-activity relationship of novel thiazole aminoguanidines against MRSA and Escherichia coli” (RSC Med Chem, 2024).
≈ marks a conversion by molar mass, not a printed value. Calls of active or inactive are those of the source. No cut-off for these calls is given here.

Columns and labels:
Escherichia coli [1] = assay: Ratio of MBC to MIC against Escherichia coli ATCC 8739 measured after 24 hrs; assay type: functional
Staphylococcus aureus [2] = assay: Potency index, ratio of norfloxacin MIC to test compound MIC for antibacterial activity against methicillin resistant Staphylococcus aureus ATCC 33591 incubated for 24 hrs by broth dilution method; assay type: functional
Staphylococcus aureus [3] = assay: Antibacterial activity against Staphylococcus aureus ATCC 6538P incubated for 24 hrs by broth microdilution method; assay type: functional
Staphylococcus aureus [4] = assay: Ratio MBC to MIC against Staphylococcus aureus ATCC 6538P measured after 24 hrs; assay type: functional
Escherichia coli [5] = assay: Antibacterial activity against Escherichia coli ATCC 8739 incubated for 24 hrs by broth microdilution method; assay type: functional
[6] = Hemolytic activity in rabbit RBC assessed as hemolysis rate at 10 times MIC incubated for 3 hrs by ultraviolet spectrophotometry analysis relative to control; assay type: toxicity, cell-based, Oryctolagus cuniculus, Erythrocyte; conditions: rabbit red blood cells (erythrocytes), read-out: Activity
Staphylococcus aureus [7] = assay: Antibacterial activity against methicillin resistant Staphylococcus aureus ATCC 33591 incubated for 24 hrs by broth dilution method; assay type: functional
Staphylococcus aureus [8] = assay: Ratio MBC to MIC methicillin resistant Staphylococcus aureus ATCC 33591 measured after 24 hrs; assay type: functional
[9] = Hemolytic activity in rabbit RBC assessed as hemolysis rate at 2 times MIC incubated for 3 hrs by ultraviolet spectrophotometry analysis relative to control; assay type: toxicity, cell-based, Oryctolagus cuniculus, Erythrocyte; conditions: rabbit red blood cells (erythrocytes), read-out: Activity
Escherichia coli [10] = assay: (§1) Inhibition of Escherichia coli ATCC 8739 UPPS using farnesyl pyrophosphate and isopentenyl pyrophosphate as a substrates preincubated for 30 min followed by EcPPA addition and measured after 30 min by malachite green dye based absorbance analysis; conditions: time 60.0 min
[11] = as §1
Staphylococcus aureus [12] = assay: Bactericidal activity against methicillin resistant Staphylococcus aureus ATCC 33591 at 1 times MIC measured after 4 hrs by time kill assay; assay type: functional
Staphylococcus aureus [13] = assay: Inhibition of biofilm formation in methicillin resistant Staphylococcus aureus ATCC 33591 at 0.5 times MIC incubated for 24 hrs by crystal violet staining based assay relative to control; assay type: functional
Staphylococcus aureus [14] = assay: Anti-biofilm activity against methicillin resistant Staphylococcus aureus ATCC 33591 assessed as biofilm eradication incubated for 24 hrs by crystal violet staining based assay; assay type: functional, organism-based
[15] = Hemolytic activity in rabbit RBC assessed as hemolysis rate at 4 times MIC incubated for 3 hrs by ultraviolet spectrophotometry analysis relative to control; assay type: toxicity, cell-based, Oryctolagus cuniculus, Erythrocyte; conditions: rabbit red blood cells (erythrocytes), read-out: Activity
Staphylococcus aureus [16] = assay: Induction of resistance development in methicillin resistant Staphylococcus aureus ATCC 33591 assessed as fold increase in MIC incubated for 24 hrs and measured at 10th generation relative to first generation; assay type: functional
Staphylococcus aureus [17] = assay: Bactericidal activity against methicillin resistant Staphylococcus aureus ATCC 33591 at 2 to 4 times MIC measured after 2 hrs by time kill assay; assay type: functional
[18] = Hemolytic activity in rabbit RBC assessed as hemolysis rate at 8 times MIC incubated for 3 hrs by ultraviolet spectrophotometry analysis relative to control; assay type: toxicity, cell-based, Oryctolagus cuniculus, Erythrocyte; conditions: rabbit red blood cells (erythrocytes), read-out: Activity
Staphylococcus aureus [19] = assay: Inhibition of biofilm formation in methicillin resistant Staphylococcus aureus ATCC 33591 at 0.25 times MIC incubated for 24 hrs by crystal violet staining based assay relative to control; assay type: functional
[20] = Hemolytic activity in rabbit RBC assessed as hemolysis rate at 6 times MIC incubated for 3 hrs by ultraviolet spectrophotometry analysis relative to control; assay type: toxicity, cell-based, Oryctolagus cuniculus, Erythrocyte; conditions: rabbit red blood cells (erythrocytes), read-out: Activity
Staphylococcus aureus [21] = assay: Anti-biofilm activity against methicillin resistant Staphylococcus aureus ATCC 33591 assessed as biofilm eradication at MIC incubated for 24 hrs by crystal violet staining based assay relative to control; assay type: functional
Escherichia coli [22] = assay: Noncompetitive inhibition of Escherichia coli ATCC 8739 UPPS using varying concentrations of farnesyl pyrophosphate as substrate assessed as decrease in Vmax with constant Km at 0 to 64 microg/mL incubated for 30 mins by Lineweaver-Burk plot analysis; conditions: dose 0-64 µg/ml
Staphylococcus aureus [23] = assay: Bactericidal activity against methicillin resistant Staphylococcus aureus ATCC 33591 at 1 to 4 times MIC incubated for 24 hrs by time kill assay; assay type: functional, organism-based

Structure (SMILES)	Ratio (Escherichia coli [1])	Ratio (Staphylococcus aureus [2])	MIC (Staphylococcus aureus [3]) [µg/mL]	Ratio (Staphylococcus aureus [4])	MIC (Escherichia coli [5]) [µg/mL]	hemolysis at 3 h, 10 x MIC [6] [%]	MIC (Staphylococcus aureus [7]) [µg/mL]	Ratio (Staphylococcus aureus [8])	other results
C/C(=N\NC(=N)N)c1sc(N/N=C/c2ccc(-c3ccc(F)cc3)cc2)nc1C	4	16	4 (≈ 9.77 µM)	1	16 (≈ 39.1 µM)	< 5	4 (≈ 9.77 µM)		
C/C(=N\NC(=N)N)c1sc(N/N=C/c2ccc(O)cc2)nc1C	1		32 (≈ 96.6 µM)	2	64 (≈ 193 µM)	< 5	128 (≈ 386 µM)	>1	
C/C(=N\NC(=N)N)c1sc(N/N=C/c2ccc(N3CCCC3)cc2)nc1C	4		32 (≈ 83.2 µM)	1	32 (≈ 83.2 µM)	< 5	32 (≈ 83.2 µM)		
C/C(=N\NC(=N)N)c1sc(N/N=C/C=C/c2c(F)cccc2F)nc1C	1		128 (≈ 339 µM)	1	32 (≈ 84.8 µM)	< 5	32 (≈ 84.8 µM)		
C/C(=N\NC(=N)N)c1sc(N/N=C/c2ccc(-c3cccs3)s2)nc1C	1	8	2 (≈ 4.96 µM)	2	8 (≈ 19.8 µM)	3.3	8 (≈ 19.8 µM)	1	hemolysis at 3 h, 2 x MIC [9]: 2.6%; inhibition (Escherichia coli [10]): Dose-Dependent Effect; IC50 [11]: 145 µM; Activity (Staphylococcus aureus [12]): 100%; inhibition (INH) (Staphylococcus aureus [13]): 59%; Activity (Staphylococcus aureus [14]): Dose-Dependent Effect; hemolysis at 3 h, 4 x MIC [15]: 2.1%; fold change (FC) (Staphylococcus aureus [16]): 2; Activity (Staphylococcus aureus [17]): 100%; hemolysis at 3 h, 8 x MIC [18]: 1.3%; inhibition (INH) (Staphylococcus aureus [19]): 44%; hemolysis at 3 h, 6 x MIC [20]: 1.7%; Activity (Staphylococcus aureus [21]): 70%; inhibition (Escherichia coli [22]): Dose-Dependent Effect
C/C(=N\NC(=N)N)c1sc(N/N=C/c2ccc(-n3cncn3)cc2)nc1C			> 128		> 128	< 5	> 128		
C/C(=N\NC(=N)N)c1sc(N/N=C/c2ccc(-c3ccc(C(F)(F)F)cc3)cc2)nc1C	1	8	16 (≈ 34.8 µM)	1	8 (≈ 17.4 µM)	< 5	8 (≈ 17.4 µM)		
COc1ccc(-c2ccc(/C=N/Nc3nc(C)c(/C(C)=N/NC(=N)N)s3)cc2)cc1	>1		32 (≈ 75.9 µM)	>1	128 (≈ 304 µM)	< 5	32 (≈ 75.9 µM)	1	
C/C(=N\NC(=N)N)c1sc(N/N=C/c2cccc(O)c2)nc1C	1		8 (≈ 24.1 µM)	2	32 (≈ 96.6 µM)	< 5	32 (≈ 96.6 µM)	1	
C/C(=N\NC(=N)N)c1sc(N/N=C/c2cncs2)nc1C	2		64 (≈ 198 µM)	>2	64 (≈ 198 µM)	< 5	64 (≈ 198 µM)	2	
C/C(=N\NC(=N)N)c1sc(N/N=C/c2cccc(F)c2F)nc1C	2		16 (≈ 45.5 µM)	2	64 (≈ 182 µM)	< 5	16 (≈ 45.5 µM)	1	
C/C(=N\NC(=N)N)c1sc(N/N=C/c2cc(F)ccc2F)nc1C	1	8	8 (≈ 22.8 µM)	1	16 (≈ 45.5 µM)	< 5	8 (≈ 22.8 µM)		
CCn1cc(C(=O)O)c(=O)c2cc(F)c(N3CCNCC3)cc21 [NORFLOXACIN]	>8		0.25 (≈ 0.783 µM)	1	0.12 (≈ 0.376 µM)		64 (≈ 200 µM)	>2	fold change (FC) (Staphylococcus aureus [16]): 4; Activity (Staphylococcus aureus [23]): inactive
C/C(=N\NC(=N)N)c1sc(N/N=C/c2cc(O)cc(O)c2)nc1C	1		32 (≈ 92.1 µM)	1	32 (≈ 92.1 µM)	< 5	64 (≈ 184 µM)		
C/C(=N\NC(=N)N)c1sc(N/N=C/c2ccccc2O)nc1C	1		32 (≈ 96.6 µM)	1	64 (≈ 193 µM)	< 5	64 (≈ 193 µM)		
C/C(=N\NC(=N)N)c1sc(N/N=C/c2ccccc2F)nc1C	1	8	16 (≈ 48 µM)	1	16 (≈ 48 µM)	< 5	8 (≈ 24 µM)		
